From patent US20230201383A1, “PSMA TARGETING UREA-BASED LIGANDS FOR PROSTATE CANCER RADIOTHERAPY AND IMAGING” (Rigshospitalet, priority 2020, published 2023)
Entries after “also recorded” stand apart in the source; their conditions may differ. Counter-ions that a name gives are not always drawn.

What was measured:
PSMA(+) LNCaP cells = experiment: Internalisation and cell surface binding of 68Ga-labeled compounds in LNCaP cells; type: cell-based, human
Experimental: Compounds Ii, Ij, Ik, Il, Im and In was provided using the same method as disclosed in Example 3 and in vitro test of the binding affinity and internalisation of the compounds were examined using the method as described in Benesova et al, 2016^9. The iodine isotope used was ^127I.
For internalisation determinations, a day before the experiment, PSMA(+) LNCaP cells were seeded in a poly-L-lysine coated 24-well plate (10^5 cells per well) and maintained at 37° C. in an atmosphere of 5% CO2 under supplemented RMPI medium (10% Fetal Calf Serum, 1% sodium pyruvate, 1% FIS). Cells were incubated with 250 μL of radiolabelled compound diluted in RPMI medium (final concentration of [^68Ga]-peptide: 30 nM) and 500 μM of PMPA (2-phosphonomethyl-pentanedioic acid) for the blocked series, for 45 min at 37° C. Cellular uptake was interrupted by washing the cells with ice-cold PBS (3×1 mL). Surface bound radioactivity was removed by incubating twice with 0.5 mL glycine (50 mM, pH=2.8) for 5 min. Thereafter, cells were washed with PBS (1 mL) and lysed employing NaOH (0.3 M) during 10 min. Lysates and surface-bound activity were collected and measured in a gamma-counter (Perkin Elmer 2480, Wizard, Gamma Counter). The cell uptake was calculated as percent of the initially added radioactivity bound to […].
For internalisation studies androgen-sensitive human prostate adenocarcinoma cells (LNCaP) highly overexpressing PSMA were incubated with the ^68Ga-labeled compounds resulting in specific cell surface binding of all tested compounds (Table 2).

[1] = test system: LNCaP-tumor-bearing athymic nude mice; experiment: Small-animal PET imaging: tumor uptake and pharmacokinetic profile; type: in vivo; settings: for Binding profile and biodistribution/pharmacokinetics compared with PSMA-617: direct head-to-head comparison with PSMA-617
Experimental: For the experimental tumor models 1×10^7 cells of LNCaP (in 50% Matrigel; Becton Dickinson) were subcutaneously inoculated into the right flank of 7- to 8-week-old male BALB/c nu/nu mice (Janvier). For imaging studies, mice were anesthetized (2% isoflurane) and 0.5 nmol of the ^68Ga-labeled compound in 0.9% NaCl (pH 7) were injected into the tail vein. PET imaging was performed with μPET/MRI scanner (BioSpec 3T, Bruker) with a dynamic scan for 60 min. The images were iteratively reconstructed (MLEM 0.5 algorithm, 12 iterations) and were converted to SUV images. Quantification was done using a ROI (region of interest) technique and data in expressed in time activity curves as SUVbody weight. All animal experiments complied with the current laws of the Federal Republic of Germany.
FIGS. 2 to 7 show the pharmacokinetic study with small-animal PET imaging. Time activity curves for non-target organs and tumor after injection of 0.5 nmol ^68Ga-labeled compounds in LNCaP-tumor-bearing athymic nude mice (right trunk) up to 60 min p.i. SUV=standardized uptake value.

[2] = 68Ga-labeled compounds, 30 nM, 45 min at 37° C., LNCaP cells, specific uptake by blockage with 500 μM 2-PMPA, mean ± SD (n=3)
[3] = 68Ga-labeled compounds, LNCaP cells, trifluoroacetic acid salt
[4] = 0.5 nmol 68Ga-labeled compound i.v., PET up to 60 min p.i., time activity curves (SUV)
[5] = 68Ga-labeled compounds, LNCaP cells

Compound | Specifically cell surface bound (PSMA(+) LNCaP cells; [2]) | Specifically internalised (PSMA(+) LNCaP cells; [2]) | Internalisation compared with PSMA-617 (in words) (PSMA(+) LNCaP cells; [3]) | Tumor accumulation (reversibility) [1, 4] | Internalisation compared with PSMA-617 (in words) (PSMA(+) LNCaP cells; [5]) | Tumor uptake compared with PSMA-617 [1, 4] | Binding profile and biodistribution/pharmacokinetics compared with PSMA-617 [1] | Tumor-to-muscle ratio compared with PSMA-617 [1, 4] | Specifically cell surface bound (PSMA(+) LNCaP cells; 0.75 h, 0.03 µM)
O=C(O)CC[C@H](NC(=O)N[C@@H](CCCCNC(=O)[C@H](Cc1cccc(I)c1)NC(=O)[C@H]1CC[C@H](CNC(=O)CN2CCN(CC(=O)O)CCN(CC(=O)O)CCN(CC(=O)O)CC2)CC1)C(=O)O)C(=O)O [Ij, (((S)-1-carboxy-5-((S)-3-(3-iodophenyl)-2-((1r,4S)-4-((2-(4,7,10-tris(carboxymethyl)-1,4,7,10-tetraazacyclododecan-1-yl)acetamido)methyl)cyclohexane-1-carboxamido)propanamido)pentyl)carbamoyl)-L-glutamic acid trifluoroacetic acid salt] | 2.3 ± 0.2 % IA/10^5 cells | 0.8 ± 0.3 % IA/10^5 cells | higher than or comparable to PSMA-617; also recorded: comparable to PSMA-617 | – | – | – | – | – | –
O=C(O)CC[C@H](NC(=O)N[C@@H](CCCCNC(=O)[C@H](Cc1ccc(I)cc1)NC(=O)[C@H]1CC[C@H](CNC(=O)CN2CCN(CC(=O)O)CCN(CC(=O)O)CCN(CC(=O)O)CC2)CC1)C(=O)O)C(=O)O [Ik, (((S)-1-carboxy-5-((S)-3-(4-iodophenyl)-2-((1r,4S)-4-((2-(4,7,10-tris(carboxymethyl)-1,4,7,10-tetraazacyclododecan-1-yl)acetamido)methyl)cyclohexane-1-carboxamido)propanamido)pentyl)carbamoyl)-L-glutamic acid trifluoroacetic acid salt] | 0.7 ± 0.1 % IA/10^5 cells | 0.6 ± 0.3 % IA/10^5 cells | – | more reversible tumor accumulation | comparable to PSMA-617 | – | – | – | –
O=C(O)CC[C@H](NC(=O)N[C@@H](CCCCNC(=O)[C@H](Cc1ccc2ccccc2c1)NC(=O)[C@H]1CC[C@H](CNC(=O)[C@H](Cc2ccc(I)cc2)NC(=O)CN2CCN(CC(=O)O)CCN(CC(=O)O)CCN(CC(=O)O)CC2)CC1)C(=O)O)C(=O)O [Im, (((S)-1-carboxy-5-((S)-2-((1S,4S)-4-(((S)-3-(4-iodophenyl)-2-(2-(4,7,10-tris(carboxymethyl)-1,4,7,10-tetraazacyclododecan-1-yl)acetamido)propanamido)methyl)cyclohexanecarboxamido)-3-(naphthalen-2-yl)propanamido)pentyl)carbamoyl)-L-glutamic acid trifluoroacetic acid salt] | 1.6 ± 0.5 % IA/10^5 cells | 0.9 ± 0.5 % IA/10^5 cells | higher than or comparable to PSMA-617; also recorded: comparable to PSMA-617 | – | – | higher tumor uptake compared to PSMA-617 | comparable or superior to values observed for PSMA-617 | – | –
O=C(O)CC[C@H](NC(=O)N[C@@H](CCCCNC(=O)[C@H](Cc1ccc2ccccc2c1)NC(=O)[C@H](Cc1ccc(I)cc1)NC(=O)CN1CCN(CC(=O)O)CCN(CC(=O)O)CCN(CC(=O)O)CC1)C(=O)O)C(=O)O [In, (((S)-1-carboxy-5-((S)-2-((S)-3-(4-iodophenyl)-2-(2-(4,7,10-tris(carboxymethyl)-1,4,7,10-tetraazacyclododecan-1-yl)acetamido)propanamido)-3-(naphthalen-2-yl)propanamido)pentyl)carbamoyl)-L-glutamic acid trifluoroacetic acid salt] | 0.4 ± 0.1 % IA/10^5 cells | 0.2 ± 0.1 % IA/10^5 cells | – | – | reduced internalised fraction | – | – | – | –
O=C(O)CC[C@H](NC(=O)N[C@@H](CCCCNC(=O)[C@@H](Cc1c[nH]c2ccc(I)cc12)NC(=O)[C@H]1CC[C@H](CNC(=O)CN2CCN(CC(=O)O)CCN(CC(=O)O)CCN(CC(=O)O)CC2)CC1)C(=O)O)C(=O)O [Il, (((S)-1-carboxy-5-((R)-3-(5-iodo-1H-indol-3-yl)-2-((1r,4R)-4-((2-(4,7,10-tris(carboxymethyl)-1,4,7,10-tetraazacyclododecan-1-yl)acetamido)methyl)cyclohexane-1-carboxamido)propanamido)pentyl)carbamoyl)-L-glutamic acid trifluoroacetic acid salt] | 1.6 ± 0.4 % IA/10^5 cells | 0.6 ± 0.2 % IA/10^5 cells | – | – | comparable to PSMA-617 | – | – | – | –
O=C(O)CC[C@H](NC(=O)N[C@@H](CCCCNC(=O)[C@H](Cc1ccccc1I)NC(=O)[C@H]1CC[C@H](CNC(=O)CN2CCN(CC(=O)O)CCN(CC(=O)O)CCN(CC(=O)O)CC2)CC1)C(=O)O)C(=O)O [Ii, (((S)-1-carboxy-5-((S)-3-(2-iodophenyl)-2-((1r,4S)-4-((2-(4,7,10-tris(carboxymethyl)-1,4,7,10-tetraazacyclododecan-1-yl)acetamido)methyl)cyclohexane-1-carboxamido)propanamido)pentyl)carbamoyl)-L-glutamic acid trifluoroacetic acid salt] | 1.1 ± 0.4 % IA/10^5 cells | 0.7 ± 0.1 % IA/10^5 cells | – | – | comparable to PSMA-617 | – | comparable or superior to values observed for PSMA-617 | increased at later time points compared to PSMA-617 | –
O=C(O)CC[C@H](NC(=O)N[C@@H](CCCCNC(=O)[C@H](Cc1ccc2ccccc2c1)NC(=O)[C@H]1CC[C@H](CNC(=O)CN2CCN(CC(=O)O)CCN(CC(=O)O)CCN(CC(=O)O)CC2)CC1)C(=O)O)C(=O)O [PSMA-617, reference compound] | – | 0.6 ± 0.2 % IA/10^5 cells | – | – | – | – | – | – | 1.5 ± 0.4 % IA/10^5 cells
